# According to paper PMC3871595, “Structure Based Identification and Characterization of Flavonoids That Disrupt Human Papillomavirus-16 E6 Function” (PLoS ONE, 2013):
# Entries after “also recorded” stand apart in the source; their conditions may differ. Read-outs that look alike come from different tables or passages of the source.
# T1: GST-HPV-16 E6 (human papillomavirus type 16), P03126
# T1 chain: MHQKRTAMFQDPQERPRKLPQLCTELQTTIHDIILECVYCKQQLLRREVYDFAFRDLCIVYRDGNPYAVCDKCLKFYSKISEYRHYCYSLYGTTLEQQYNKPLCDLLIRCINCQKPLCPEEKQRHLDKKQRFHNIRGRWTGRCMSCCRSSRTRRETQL
# B1: E6AP 18-mer peptide (peptide)
# chain: IPESSELTLQELLGEERR
# modifications: not checked
# Tests used:
# [1] = target: T2, interaction between HPV-16 E6 and E6AP (Human papillomavirus type 16, UniProt P03126); experiment: biochemical; format: binding; details: for Emax: read-out: Maximal Inhibition; for activity and potency in E6/E6AP binding assay (in words): SAR library, initial 5-point dose range 12.3 µM to 1 mM
# T2 construct: made in house; host or cells: E. coli BL21
# Description: To characterize potential E6 inhibitors, a robust in vitro assay was developed to measure the interaction between HPV-16 E6 and E6AP. […] The core 70 amino acids of the E6 binding region of E6AP (residues 371-440) was fused to bacterial alkaline phosphatase (BAP) in the MY101 vector [40]. […] Binding efficiency was determined from the intensity of BAP activated chemiluminescence remaining in each well.
# Kinetic analysis was performed to characterize the protein-protein interaction inherent in this assay.
# The collection of 72 available structural-lead compounds was tested in the filter-plate based in vitro E6-E6AP binding assay. […] Compounds that disrupted the Flag-BAP interaction with the same potency as the HPV-16 E6 and E6AP interaction were classified as non-specific and eliminated from further analysis. […]
# (§1) Pre-Block - 96-well filter plates were prepared (0.2 µm BioTrace NT, Pall). 100µL of blocking buffer (100 mM Tris pH 8.0, 100 mM NaCl, 0.1% milk) was added per well. Plates were blocked for 1 hr at RT on an orbital shaker. Buffer was removed by vacuum filtration using a vacuum manifold. GST-E6 Bead addition – GST-E6 beads were prepared at 5µg/mL in GST-E6 bead buffer (100 mM Tris pH 8.0, 100 mM NaCl, 0.1% milk, 2.5 mM DTT). 100µL of GST-E6 bead mix was added per well and incubated for 1 hr at 4°C. Buffer was removed by vacuum filtration. […] 48 µL of each reagent was added per well. For drug assay, 2µL of compound was added to each well and mixed thoroughly. […] Plates were incubated for 1-3 hours at RT on an orbital shaker. Buffer was removed by vacuum filtration. Plates were washed on the vacuum manifold, first with 200 µL buffer (100 mM Tris pH 8.0, 100 mM NaCl, 1 mM DTT), and twice more with 100µL lysis buffer without DTT. Plates were cleared and dried with on the vacuum manifold. Assay – Immunostar assay reagent was prepared and equilibrated to RT prior to addition. 60 µL of Immunostar-AP assay reagent was added, the BAP activity was allowed to develop for 10 minutes and the plates were read on a Wallace Luminometer. BAP activity was measured as relative light units (RLU) on a luminometer using the Immunostar-AP substrate (BioRad).
# [2] = system: interaction between anti-FLAG antibody and the FLAG epitope in the E6AP-BAP fusion; experiment: FLAG/BAP specificity filter binding assay
# Description: The collection of 72 available structural-lead compounds was tested in the filter-plate based in vitro E6-E6AP binding assay. Compounds were tested twice at concentrations of 10, 50, and 100 µM. […] Compounds that disrupted the Flag-BAP interaction with the same potency as the HPV-16 E6 and E6AP interaction were classified as non-specific and eliminated from further analysis.
# Figure 3 Activity of flavonoids in the in vitro binding assay. Compounds were tested in vitro for the ability to disrupt the E6-E6AP interaction. […] Percent inhibition was determined by the amount of BAP activity remaining in the well after washing and normalized to DMSO. Data was plotted by linear regression for single site binding using Prism (n=3, S.E.M.).
# (§2) This interaction between E6 and hDlg occurs at the C-terminus of E6 and is independent of the interaction between E6 and the charged leucine helix in E6AP [21, 22].
# MBP-E6 = target: T3, MBP-E6 (Human papillomavirus type 16, UniProt P03126); experiment: thermal shift (Sypro Orange) assay; format: binding, HPV-16; details: versus DMSO; for effect on Tm of MBP-E6: 5-150 µM tested
# T3 construct: made in house; host or cells: E. coli BL21DE(3)
# Description: A thermal shift assay was used to assess compound binding to HPV E6. In this reaction, protein denaturation is measured by an increase in fluorescence from Sypro Orange as it binds to the newly exposed hydrophobic surfaces on the protein [48]. A protein stability curve is created as a measure of the rate of protein unfolding. The relative fluorescence is plotted against temperature and the melting temperature (Tm) is determined by calculating the temperature of peak fluorescence. Ligand binding can stabilize the protein and increase the Tm. The thermal profile of MBP-E6 proteins was investigated to determine if the flavonoid derivatives could stabilize MBP-E6 protein structure during heat-induced unfolding. […] The change in Tm (∆Tm) was plotted for each compound and compared to DMSO (Figure 10F,G ).
# MBP-16E6 DNA, a kind gift from G. Travé [58], was transformed into BL21DE(3) E. coli. Protein expression was performed by inoculation of a 1 mL starter culture in 100 mL of Turbo-Broth containing 0.2 % lactose, 0.05% glucose and 0.6% glycerol at 20°C for 24 hrs. Cells were lysed in 50 mM Tris HCl pH 6.8, 300 mM NaCl, 0.1 % (v/v) NP-40, 2 mM DTT and 1x protease inhibitor cocktail (EDTA-free, Roche) and sonicated as described before. Cell lysate was cleared by centrifugation at 15000xg, 4°C for 30 min and equilibrated with amylose resin beads (New England Biolabs, Inc.) by inversion for 3 hrs at 4°C. Bound beads were washed one time in lysis buffer and four times with wash buffer (50 mM Tris-HCl pH 6.8, 400 mM NaCl, 2 mM DTT, 1x protease inhibitor cocktail). Bound MBP-E6 proteins were eluted using a final concentration of 20 mM maltose in 5 bed volumes of wash buffer. All steps were performed at 4°C. Protein concentration was measured by BCA (BioRad). Thermostability of MBP-E6 proteins was analyzed at a final concentration of 1 µM in reaction buffer (50 mM TrisHCl pH 6.8, 400 mM NaCl, 2 mM DTT). MBP-E6 proteins were equilibrated with CAF-8 (5 µM-150 µM), CAF-24 (5 µM-150 µM), CAF-26 (5 µM-150 µM) or DMSO for 30 min in reaction buffer. Sypro Orange, a hydrophobic fluorescent dye, was added at the end of the incubation period at a final concentration of 5X. The final DMSO concentration (1.8% v/v) was kept constant across the concentration range. Fluorescence was measured using the FRET channel of CFX96 Real-Time PCR thermal cycler (BioRad) over a temperature range of 25°C to 95°C. Temperature increments were set to 0.5°C for 30 sec followed by plate reading. Melt curves were determined in triplicate and repeated four times. Melt curves represent the relative fluorescence of the 1st derivative of four experiments. Melting temperature (Tm) was calculated by CFX manager software. The average melting temperature of the triplicate was used to calculate the ∆Tm for each experiment. ∆Tm values are expressed as the change vs. DMSO.
# [3] = system: HPV-16 E6 mediated p53 degradation; experiment: in vitro HPV-16 E6 mediated p53 degradation assay; format: biochemical
# Description: In vitro expressed p53 was incubated in rabbit reticulocyte lysate in the presence or absence of in vitro expressed HPV16 E6. p53 levels were reduced in reaction containing E6 proteins (Figure 8 ).
# Control reactions (no DNA, p53 alone) were incubated with 1 µL wheat germ extract and 2% DMSO in reaction buffer. In vitro translated p53 and rabbit reticulocyte lysate (RRL, Promega) were added to all reactions except the no DNA control reaction to which wheat germ extract was added instead of p53. Reactions were incubated for 3 hrs at 30°C and stopped by addition of 6X reducing SDS sample buffer and heating at 95°C for 5 min. Each reaction was loaded onto a 10% SDS-PAGE gel and transferred onto PVDF (0.45 µm). p53 and 16E6 were visualized using monoclonal p53 (Pab1801, 1:1000), monoclonal 16E6 (813, Arbor Vita Corporation, 1:4000) antibody and anti-mouse HRP-labeled secondary antibody (1:2000, Sigma-Aldrich).
# [4] = target: T4, interaction between GST-E6 and three PDZ domains of hDlg fused to BAP (hDlg-BAP) (Human papillomavirus type 16, UniProt P03126); experiment: E6/hDlg-BAP specificity filter binding assay; set-up: species or system HPV-16
# T4 construct: made in house; host or cells: E. coli BL21
# Description: as §2
# as §1, with “Plates were cleared and dried with on the vacuum manifold. Assay – Immunostar assay reagent was prepared and equilibrated to RT prior to addition.” left out
# [5] = solubility in aqueous SPR buffers; format: physicochemical; details: simple aqueous solution
# [6] = target: T1, GST-HPV-16 E6 (human papillomavirus …); experiment: filter plate bead binding assay (BAP chemiluminescence); competition: peptide added to bead-bound GST-E6 and free E6AP-BAP; 1 hour incubations
# [7] = in silico leads retested in duplicate at 5 concentrations 5 to 250 µM
molecule,measurement,setting,value
O=C(O)c1cc(-c2ccc3c(=O)cc(-c4ccccc4)oc3c2)ccc1Cl [CAF31],IC50,[1],62.2 µM
same,Emax,[1],86%
COc1cc(O)cc2oc(-c3ccc(O)c(O)c3)cc(=O)c12 [CAF-10],activity and potency in E6/E6AP binding assay (in words),[1],same potency and activity as luteolin
COc1ccc(-c2ccc3oc(-c4ccccc4)cc(=O)c3c2)c(OC)c1C(=O)O [CAF29],IC50,[1],12.5 µM
same,Emax,[1],75%
O=C(O)c1cccc(-c2ccc3oc(-c4cccc(O)c4)cc(=O)c3c2)c1 [CAF28],Emax,[1],75%
CC(=O)Oc1cc(OC(C)=O)c2c(=O)c(OC(C)=O)c(-c3ccc(OC(C)=O)c(OC(C)=O)c3)oc2c1 [Compound 168],IC50,[1],44 µM
same,IC50,[1]; [7],low micromolar IC50 values
same,non-specific inhibition / specificity in FLAG-E6AP control assay,[2],some non-specific inhibitory activity
O=c1cc(-c2cccc(C(F)(F)F)c2)oc2ccc(-c3nnn[nH]3)cc12 [CAF25],IC50,[1],1.1 µM
same,Emax,[1],95%
O=C(O)c1cccc(-c2ccc3c(=O)cc(-c4ccccc4)oc3c2)c1 [CAF30],IC50,[1],47.3 µM
same,Emax,[1],84%
CC(=O)Oc1cc(OC(C)=O)c2c(=O)cc(-c3ccc(OC(C)=O)c(OC(C)=O)c3)oc2c1 [Compound 170],IC50,[1],44 µM
same,activity and potency in E6/E6AP binding assay (in words),[1],much lower activity and potency than observed with the initial hit
same,IC50,[1]; [7],low micromolar IC50 values
same,non-specific inhibition / specificity in FLAG-E6AP control assay,[2],more selective inhibitor of the E6-E6AP interaction
COc1cc(OC)c2c(=O)cc(-c3ccc(OC)c(OC)c3)oc2c1 [CAF-8],activity and potency in E6/E6AP binding assay (in words),[1],no activity
same,effect on Tm of MBP-E6,MBP-E6,unable to significantly alter MBP-E6 melting temperature; also recorded: no measurable effect
same,effect on E6 mediated p53 degradation,[3]; 10 µM compound pre-incubated with E6,did not alter E6 mediated p53 degradation
same,effect on E6 mediated p53 degradation,[3]; 100 µM compound pre-incubated with E6,did not alter E6 mediated p53 degradation
O=c1cc(-c2ccc(O)cc2)oc2cc(O)cc(O)c12 [CAF-14],increase of IC50 relative to luteolin,[1],15-30 fold
"CC[C@H](C)[C@H](N)C(=O)N1CCC[C@H]1C(=O)N[C@@H](CCC(=O)O)C(=O)N[C@@H](CO)C(=O)N[C@@H](CO)C(=O)N[C@@H](CCC(=O)O)C(=O)N[C@@H](CC(C)C)C(=O)N[C@H](C(=O)N[C@@H](CC(C)C)C(=O)N[C@@H](CCC(N)=O)C(=O)N[C@@H](CCC(=O)O)C(=O)N[C@@H](CC(C)C)C(=O)N[C@@H](CC(C)C)C(=O)NCC(=O)N[C@@H](CCC(=O)O)C(=O)N[C@@H](CCC(=O)O)C(=O)N[C@@H](CCCNC(=N)N)C(=O)N[C@@H](CCCNC(=N)N)C(=O)O)[C@@H](C)O [E6AP 18-mer, reference compound]",inhibition at 100 µM,[1]; read-out: inhibition of binding,95%
O=c1cc(-c2ccccc2)oc2ccc(-c3nnn[nH]3)cc12 [CAF-26],specificity against hDlg control binding reaction,[4],increased specificity against the FLAG and hDlg control binding reactions
same,IC50,[1],5.1 µM
same,IC50,"[1]; full 7-point dose response, 0.5 µM to 333 µM, quadruplicate",low micromolar IC50 values
same,Emax,[1],97%
same,effect on Tm of MBP-E6,MBP-E6,about 1 °C
same,shift of MBP-E6 Tm,"MBP-E6; at 25, 50 and 150 µM",~1 °C
same,non-specific inhibition / specificity in FLAG-E6AP control assay,[2],increased specificity against the FLAG and hDlg control binding reactions
same,aqueous solubility (in words),[5],limited aqueous solubility
O=c1cc(-c2ccccc2)oc2ccc(-c3cccc(-c4nnn[nH]4)c3)cc12 [CAF27],IC50,[1],6.9 µM
same,Emax,[1],96%
O=c1cc(-c2ccc(O)c(O)c2)oc2cccc(O)c12 [CAF-13],increase of IC50 relative to luteolin,[1],15-30 fold
COc1ccc(NC2Oc3cc(O)ccc3C=C2C(=O)Nc2cccc(C)n2)cc1OC (centres unmarked) [Compound 160],IC50,[1]; [7],low micromolar IC50 values
same,non-specific inhibition / specificity in FLAG-E6AP control assay,[2],inhibited binding in the FLAG-E6AP assay
COc1ccc(CC2c3c(cc(OC)c(O)c3OC)CCN2C)cc1OC (centres unmarked) [Compound 117],IC50,[1]; [7],low micromolar IC50 values
same,non-specific inhibition / specificity in FLAG-E6AP control assay,[2],inhibited binding in the FLAG-E6AP assay
O=C(O)c1cc(-c2ccc3c(=O)cc(-c4ccccc4)oc3c2)ccc1F [CAF32],IC50,[1],48 µM
same,Emax,[1],75%
B1,percent inhibition at 100 µM,[6],95%
